We go through 50 compounds from patent US9393221B2, “Methods and compounds for reducing intracellular lipid storage” (THE GENERAL HOSPITAL CORPORATION, priority 2011, dated 2016).

The assay relates to ATGL-KO iPSCs. As to the kind of experiment: High throughput iPSC chemical screening, Oil Red O (ORO) lipid accumulation. For Z-score: test concentration or dose not given here. Type of assay: cell-based, mouse.
Where [1] appears, read: normalized ORO level vs DMSO-treated cells, compound present during 7 days differentiation, 96-well, negative = decrease in lipid accumulation.

Where a name gives a salt, the structure may show the parent alone. Read-outs that look alike come from different tables or passages of the source.

`C[C@H]1NC(=O)NC1=O` [Methylhydantoin-5-(D)] displayed a Z-score under setting [1] of −0.6204. Still for that read-out and setting: as for `C[C@@H]1NC(=O)NC1=O` [Methylhydantoin-5-(L)], the figure is −0.97; as for `C[C@H]1C[C@@H]2[C@H]([C@@H](O)C[C@@]3(C)[C@H]2CC[C@]3(O)C(=O)CO)[C@@]2(C)C=CC(=O)C=C12` [Methylprednisolone, 6-alpha], −1.1745.

As to `Cc1cc2c(cc1S(N)(=O)=O)S(=O)(=O)CCC2` [Meticrane], the Z-score under setting [1] is −0.0455. On the same count and under the same terms, as for `CN1CCCC(CC2c3ccccc3Sc3ccccc32)C1` (stereo not drawn) [Metixene hydrochloride], the figure is −0.8136. `CCN(CC)CCNC(=O)c1cc(Cl)c(N)cc1OC` [Metoclopramide monohydrochloride]: under setting [1], the Z-score is on record as −1.0824. Same read-out and setting: as for `Cc1ccccc1N1C(=O)c2cc(S(N)(=O)=O)c(Cl)cc2NC1C` (stereo not drawn) [Metolazone], the figure is −0.7452. Still for that read-out and setting: as for `CC(=O)Nc1c(I)c(C(=O)N[C@H]2C(O)O[C@H](CO)[C@@H](O)[C@@H]2O)c(I)c(N(C)C(C)=O)c1I` (stereo partly drawn) [Metrizamide], the figure is 1.8943; as for `Cc1ncc([N+](=O)[O-])n1CCO` [Metronidazole], 0.716; as for `CC(C)(C(=O)c1cccnc1)c1cccnc1` [Metyrapone], −1.7744. Under setting [1], `C[C@@]1(O)CCOC(=O)C1` [Mevalonic-D, L acid lactone] returned a Z-score of −1.4333. Same read-out and setting: as for `Cc1cccc(C)c1OCC(C)N` (stereo not drawn) [Mexiletine hydrochloride], the figure is 1.054; as for `CN1CCN2c3ccccc3Cc3ccccc3C2C1` (stereo not drawn) [Mianserine hydrochloride], −1.3517; as for `Clc1ccc(COC(Cn2ccnc2)c2ccc(Cl)cc2Cl)c(Cl)c1` (stereo not drawn) [Miconazole], −0.018. The same measure, in the same setting: the value for `COc1ccc(OC)c(C(O)CNC(=O)CN)c1` (stereo not drawn) [Midodrine hydrochloride] was −0.5001. On the same count and under the same terms, the value for `CC#C[C@]1(O)CC[C@H]2[C@@H]3CCC4=CC(=O)CCC4=C3[C@@H](c3ccc(N(C)C)cc3)C[C@@]21C` [Mifepristone] was −0.6348; that for `Cc1[nH]c(=O)c(C#N)cc1-c1ccncc1` [Milrinone] was −0.2851. Regarding `NC(Cn1ccc(=O)c(O)c1)C(=O)O` (stereo not drawn) [Mimosine], under setting [1], the Z-score worked out at 0.9075. On the same count and under the same terms, as for `Cc1cc(-c2ccccc2)nnc1NCCN1CCOCC1` [Minaprine dihydrochloride], the figure is 0.429; as for `CN(C)c1ccc(O)c2c1C[C@H]1C[C@H]3[C@H](N(C)C)C(O)=C(C(N)=O)C(=O)[C@@]3(O)C(O)=C1C2=O` [Minocycline hydrochloride], 5.776.

On to `Nc1cc(N2CCCCC2)nc(N)[n+]1[O-]` [Minoxidil], for which the Z-score under setting [1] turned out to be 0.06676. `O=C1c2c(O)ccc(O)c2C(=O)c2c(NCCNCCO)ccc(NCCNCCO)c21` [Mitoxantrone dihydrochloride] yielded a Z-score under setting [1] of 45.2169. Same read-out and setting: the value for `CCc1c(C)[nH]c2c1C(=O)C(CN1CCOCC1)CC2` (stereo not drawn) [Molindone hydrochloride] was 2.263; that for `CCOC(=O)[N-]c1cn(N2CCOCC2)n[o+]1` [Molsidomine] was 1.761. For `C[C@@H]1C[C@H]2[C@@H]3CCC4=CC(=O)C=C[C@]4(C)[C@@]3(Cl)[C@@H](O)C[C@]2(C)[C@@]1(OC(=O)c1ccco1)C(=O)CCl` [Mometasone furoate], under setting [1], the Z-score is listed as −0.7613. As to `CC[C@@]1([C@@H]2O[C@@H]([C@H]3O[C@@](O)(CO)[C@H](C)C[C@@H]3C)C[C@@H]2C)CC[C@H]([C@]2(C)CC[C@]3(C[C@H](O)[C@@H](C)[C@@H]([C@@H](C)[C@@H](OC)[C@H](C)C(=O)O)O3)O2)O1` [Monensin sodium salt], under setting [1], the Z-score is listed as 18.1768. On the same count and under the same terms, the value for `Oc1ccc(OCc2ccccc2)cc1` [Monobenzone] was −1.7289; that for `C[C@H]1C(=O)O[C@@H]2CCN3CC=C(COC(=O)[C@](C)(O)[C@]1(C)O)[C@H]23` [Monocrotaline] was −1.7819; that for `Cc1ccsc1/C=C/C1=NCCCN1C` [Morantel tartrate] was 1.005. Still for that read-out and setting: the value for `CCOC(=O)Nc1ccc2c(c1)N(C(=O)CCN1CCOCC1)c1ccccc1S2` [Moricizine hydrochloride] was −0.1525.

Turning to `Cl.N=C(N=C(N)N)N1CCOCC1` [Moroxidine hydrochloride], under setting [1], the Z-score is 0.05075. Same read-out and setting: the value for `CO[C@@]1(NC(=O)C(C(=O)O)c2ccc(O)cc2)C(=O)N2C(C(=O)O)=C(CSc3nnnn3C)CO[C@@H]21` (stereo partly drawn) [Moxalactam disodium salt] was −0.7608. Still for that read-out and setting: as for `CC(=O)Oc1cc(C(C)C)c(OCCN(C)C)cc1C.Cl` [Moxisylyte hydrochoride], the figure is −0.4722; as for `COc1nc(C)nc(Cl)c1N=C1NCCN1` [Moxonidine], −0.6893.

In the case of `COc1c(C)c2c(c(O)c1C/C=C(\C)CCC(=O)O)C(=O)OC2` [Mycophenolic acid], the Z-score under setting [1] was determined as 36.1922. The same measure, in the same setting: the value for `c1cncc(C2=NCCC2)c1` [Myosmine] was 0.265; that for `O=c1c(O)c(-c2cc(O)c(O)c(O)c2)oc2cc(O)cc(O)c12` [Myricetin] was 27.33. The same measure, in the same setting: as for `CNc1ncnc2c1ncn2[C@@H]1O[C@H](CO)[C@@H](O)[C@H]1O` [N6-methyladenosine], the figure is −0.5287; as for `CC(=O)N[C@@H](CC(C)C)C(=O)O` [N-Acetyl-L-leucine], −1.2512; as for `COc1ccc2cc(CCC(C)=O)ccc2c1` [Nabumetone], −0.6754. Still for that read-out and setting: as for `NC(=O)c1ccc[n+]([C@@H]2O[C@H](COP(=O)([O-])OP(=O)(O)OC[C@H]3O[C@@H](n4cnc5c(N)ncnc54)[C@H](O)[C@@H]3O)[C@@H](O)[C@H]2O)c1` [Nadide], the figure is 0.1385; as for `CC(C)(C)NCC(O)COc1cccc2c1CC(O)C(O)C2` (stereo not drawn) [Nadolol], −1.7201. In the case of `CCOc1ccc2ccccc2c1C(=O)N[C@@H]1C(=O)N2[C@@H]1SC(C)(C)[C@@H]2C(=O)O` [Nafcillin sodium salt monohydrate], the Z-score under setting [1] is recorded as −0.1498.

Under setting [1], `CCN(CC)CCOC(=O)C(Cc1cccc2ccccc12)CC1CCCO1` (stereo not drawn) [Nafronyl oxalate] had a Z-score of 0.6546.

As to `CN(C/C=C/c1ccccc1)Cc1cccc2ccccc12` [Naftifine hydrochloride], the “Rank in normalized ORO score from screen” value (glycolytic switch compounds) was 383. Under setting [1], this compound showed a Z-score of −0.6354. Take `COc1ccccc1N1CCN(CC(O)COc2cccc3ccccc23)CC1` (stereo not drawn) [Naftopidil dihydrochloride]: the Z-score under setting [1] is −0.9212. Turning to `Oc1ccc2c3c1O[C@H]1[C@@H](O)CC[C@@]4(O)[C@@H](C2)N(CC2CCC2)CC[C@]314` [Nalbuphine hydrochloride], the Z-score is given as −1.0996.

For `CCn1cc(C(=O)O)c(=O)c2ccc(C)nc21` [Nalidixic acid sodium salt hydrate], the Z-score under setting [1] is reported as −0.4868.

As for `C=CCN1CC[C@]23c4c5ccc(O)c4O[C@H]2C(=O)CC[C@@]3(O)[C@H]1C5` [Naloxone hydrochloride], the Z-score under setting [1] is −0.3899.

As for `O=C1CC[C@@]2(O)[C@H]3Cc4ccc(O)c5c4[C@@]2(CCN3CC2CC2)[C@H]1O5` [Naltrexone hydrochloride dihydrate], the Z-score under setting [1] is −0.609.
